What was measured:
β-catenin = assay: Western blotting of nuclear β-catenin in dermal papilla cells; assay type: cell-based, human; settings: peptide 0.5 uM, 5 uM or 50 uM, serum-free medium, 24 hours, nuclear proteins; FIG. 3
Protocol: The effect of the peptide consisting of the amino acid sequence of SEQ ID NO: 1 on the activation of a proliferation mechanism of hair follicle cells was to be confirmed. In detail, human dermal papilla cells were seeded in a 6-well plate at a density of 4×10^5 cells/well, and cultured for 16 hours. The culture medium was replaced with a serum-free medium, and the peptide was added thereto at a concentration of 0.5 uM, 5 uM, or 50 uM, and the cells were cultured for 24 hours. Here, as a positive control group, 5 uM of Minoxidil was treated. The cells were harvested and nuclear proteins thereof were isolated by using a nuclear protein extraction kit (Merck, USA). Then, western blotting was performed with respect to β-catenin which is a factor related to proliferation of the dermal papilla cells by using β-catenin antibodies (Santacruz biotechnology, USA).

ERK = assay: Western blotting of phosphorylated ERK in dermal papilla cells; assay type: cell-based, human; settings: peptide 0.5 uM, 5 uM or 50 uM, serum-free medium, 30 minutes; FIG. 2
Protocol: (§1) The effect of the peptide consisting of the amino acid sequence of SEQ ID NO: 1 on the activation of proliferation-related factors in hair follicle cells was to be confirmed. In detail, human dermal papilla cells were seeded in a 6-well plate at a density of 4×10^5 cells/well, and cultured for 16 hours. The culture medium was replaced with a serum-free medium, and the peptide was added thereto at a concentration of 0.5 uM, 5 uM, or 50 uM, and the cells were cultured for 30 minutes. Here, as a positive control group, 5 uM of Minoxidil was treated. Cell lysates were prepared by harvesting the cell, and then, western blotting was performed with respect to phosphorylated ERK and phosphorylated AKT by using p-ERK antibodies and p-AKT antibodies (Santacruz biotechnology, USA).

DKK-1 = assay: Western blotting of DKK-1 expression in DHT-stimulated dermal papilla cells; assay type: cell-based, human; settings: DHT 10 ug/ml as stimulator, peptide 0.5 uM, 5 uM or 50 uM, 24 hours; FIG. 4
Protocol: The inhibitory effect of the peptide consisting of the amino acid sequence of SEQ ID NO: 1 on the expression of DKK-1, which is a hair loss-related factor, in hair follicle cells was to be confirmed. In detail, human dermal papilla cells were seeded in a 6-well plate at a density of 4x10^5 cells/well, and cultured for 16 hours. After the culture medium was replaced with a serum-free medium, dihydrotestosterone (DHT) as a stimulator was added thereto at a concentration of 10 ug/ml while peptide was added thereto at a concentration of 0.5 uM, 5 uM, or 50 uM. Then, the cells were cultured for 24 hours. The cells were harvested and nuclear proteins thereof were isolated by using a nuclear protein extraction kit. Then, western blotting was performed by using DKK-1 antibodies (Santacruz biotechnology, USA). Here, DHT is known as a hair loss hormone that increases the expression of DKK-1, which is a hair loss-inducible factor, by activating an androgen receptor.

[1] = system: human hair follicle dermal papilla cells; assay: Proliferation of human hair follicle dermal papilla cells (MTT method); assay type: cell-based; settings: peptide 0.5 uM, 5 uM or 50 uM, serum-free medium, 72 hours; FIG. 1
Protocol: The promoting effect of the peptide consisting of the amino acid sequence of SEQ ID NO: 1 on the proliferation of hair follicle cells was to be confirmed. In detail, human hair follicle dermal papilla cells were seeded in a 96-well plate at a density of 5×10^3 cells/well, and cultured for 16 hours. The culture medium was replaced with a serum-free medium, and the peptide was added thereto at a concentration of 0.5 uM, 5 uM, or 50 uM, and the cells were cultured for 72 hours. Here, as a positive control group, 5 uM of Minoxidil which is used as a hair loss treatment was treated. Afterwards, an MTT method was performed to measure the cell proliferation. In detail, 4 ug/ml of 3-(4,5-dimethylthiazol-2-yl)-2,5-diphenyltetrazolium bromide (MTT) was treated, and 4 hours later, DMSO was treated thereon to dissolve formazan. Then, the absorbance at 560 nm was measured by using a spectrophotometer.

TGFβ-1 = assay: PCR of TGFβ-1 expression in dermal papilla cells; assay type: cell-based, human; settings: peptide 0.5 uM, 5 uM or 50 uM, serum-free medium, 24 hours, PCR with GAPDH; FIG. 5
Protocol: The inhibitory effect of the peptide consisting of the amino acid sequence of SEQ ID NO: 1 on the expression of TGFβ-1, which is a hair loss-related factor, in hair follicle cells was to be confirmed. In detail, human dermal papilla cells were seeded in a 6-well plate at a density of 4x10^5 cells/well, and cultured for 16 hours. The culture medium was replaced with a serum-free medium, and the peptide was added thereto at a concentration of 0.5 uM, 5 uM, or 50 uM, and the cells were cultured for 24 hours. Here, as a positive control group, 5 uM of Minoxidil was treated. After the cells were harvested, RNA was extracted therefrom and used for synthesis of cNDA by using a cDNA synthesis kit and PCR pre-mix. TGFβ-1, as an androgen-inducible factor in hair follicle cells, is known to be related to hair loss.

AKT = assay: Western blotting of phosphorylated AKT in dermal papilla cells; assay type: cell-based, human; settings: peptide 0.5 uM, 5 uM or 50 uM, serum-free medium, 30 minutes; FIG. 2
Protocol: as §1

WQNMRL [SEQ ID NO: 1]
movement of β-catenin from the cytoplasm to the nucleus (β-catenin): increased
phosphorylation of ERK (ERK): induced
expression of DKK-1 (DKK-1): inhibit the expression of DKK-1
proliferation of human dermal papilla cells (MTT, absorbance at 560 nm) [1]: promoted the proliferation of human dermal papilla cells
expression of TGFβ-1 (TGFβ-1): inhibit the expression of TGFβ-1
phosphorylation of AKT (AKT): induced

Reference: US12414907B2, “Peptide having hair growth promoting activity and use thereof” (CAREGEN CO., LTD., priority 2019, dated 2025)
